# ± gives the expanded uncertainty stated by the source.
# Tests used:
# [1] = Crystal; for mass density: 298.15 K, 101.33 kPa, mass and volume of pellet; for Normal melting temperature: DTA
# [2] = Molar enthalpy of transition or fusion; conditions: Crystal; DSC
SMILES,mass density [1] [kg/m3],Normal melting temperature [1] [°C],Molar enthalpy of transition or fusion [2] [kcal/mol]
"O=C1Cc2ccccc2CO1 [1,4-dihydro-3H-2-benzopyran-3-one]",1140 ± 10,82.73 ± 0.39,4.37 ± 0.112
"O=C1CCOc2ccccc21 [2,3-dihydro-4H-1-benzopyran-4-one]",1140 ± 10,39.13 ± 0.39,4 ± 0.129
